From ChEMBL document CHEMBL1150827, “Pseudodestruxins A and B: new cyclic depsipeptides from the coprophilous fungus Nigrosabulum globosum” (2001) come the findings set out here.

Active and inactive are the calls of the source. The calls are words filed in the database; no cut-off is given here. Non-standard residues stand in square brackets, D forms with d. Residues, ends and D or L forms follow the SMILES beside them. NMeI = CC[C@H](C)[C@H](NC)C(=O)O; Hica(2S) = CC(C)C[C@H](O)C(=O)O; NMeL = CN[C@@H](CC(C)C)C(=O)O; NMeV = CN[C@H](C(=O)O)C(C)C; βAla = NCCC(=O)O

In one assay the test system is Bacillus subtilis. Nature of the assay: Antibacterial activity against Bacillus subtilis ATCC 6051 at 200 ug/disk by standard disk assay. Format: functional. Conditions: read-out: IZ.
Another assay concerns Candida albicans. Briefly: Antifungal activity against Candida albicans ATCC 90029 at 200 ug/disk by standard disk assay. Particulars: read-out: IZ. Format: functional.
In assay [1] the test system is Sordaria fimicola. Nature of the assay: Antifungal activity against Sordaria fimicola NRRL 6459 assessed as inhibition of radial growth at 200 ug/disk by standard disk assay. Format: functional.
In assay [2] the test system is Ascobolus. Briefly: Antifungal activity against Ascobolus furfuraceus NRRL 6460 assessed as inhibition of radial growth at 200 ug/disk by standard disk assay. Format: functional.
The subject of a further assay is Staphylococcus aureus. Nature of the assay: Antibacterial activity against Staphylococcus aureus ATCC 29213 at 200 ug/disk by standard disk assay. Format: functional. Particulars: read-out: IZ.
Assay [3] deals with Sordaria fimicola. Briefly: Antifungal activity against Sordaria fimicola NRRL 6459 at 200 ug/disk by standard disk assay. Format: functional, organism-based.
The subject of assay [4] is Ascobolus. Nature of the assay: Antifungal activity against Ascobolus furfuraceus NRRL 6460 at 200 ug/disk by standard disk assay. Format: functional, organism-based.
Another assay relates to Helicoverpa zea. Nature of the assay: Antiinsectan activity against Helicoverpa zea larvae at 100 ppm dietary level by dietary assay. Format: functional, organism-based.

`CC(/C=C/[C@@]1(C)[C@H](C)CCC(=O)[C@@H]1C)=C\Cc1c(O)c(Cl)c(C)c(C=O)c1O` [ASCOCHLORIN]: the zone of inhibition at 200 µg/disc in the assay with Bacillus subtilis was found to be 12 mm; in the assay on Candida albicans it was 24 mm; in the assay with Staphylococcus aureus, 11 mm. In addition, the inhibition at 200 µg/disc in the assay on Sordaria fimicola [1] is 62%; in the assay with Ascobolus [2], 33%.
For the compound `CC(C)C[C@@H]1OC(=O)CCNC(=O)[C@H](CC(C)C)N(C)C(=O)[C@H](C(C)C)N(C)C(=O)[C@H](Cc2ccccc2)NC(=O)[C@@H]2CCCN2C1=O` [PSEUDODESTRUXIN B] (cyclo(F[NMeV][NMeL][βAla][Hica(2S)]P)), the zone of inhibition at 200 µg/disc in the assay with Bacillus subtilis was 8 mm. Also, the “inhibition zone (IZ)” value with Sordaria fimicola [3] and with Ascobolus [4] was “inactive” in each case.
In the case of `CC[C@H](C)[C@H]1C(=O)N(C)[C@@H](CC(C)C)C(=O)NCCC(=O)O[C@@H](CC(C)C)C(=O)N2CCC[C@H]2C(=O)N[C@@H](Cc2ccccc2)C(=O)N1C` [PSEUDODESTRUXIN A] (cyclo(F[NMeI][NMeL][βAla][Hica(2S)]P)), the zone of inhibition at 200 µg/disc in the assay with Bacillus subtilis was found to be 8 mm. Further, the “inhibition zone (IZ)” value in the assay on Sordaria fimicola [3] and in the assay with Ascobolus [4] was “inactive” each time. Moreover, the outcome with Helicoverpa zea was inactive.
